Experimental data: the supplement of paper PMC10307832

Key:
Assay in all cases: relative viability (nuclei count vs DMSO), 5 days (fraction); higher = more cells survive
[1] = compound: O=c1[nH]cc(F)c(=O)[nH]1 [5-Fluorouracil] + COc1cc2c(Oc3ccc(NC(=O)C4(C(=O)Nc5ccc(F)cc5)CC4)cc3F)ccnc2cc1OCCCN1CCOCC1 [Foretinib] (partner 0.25 µM)
Method in brief: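 A single step with final 0.05% Triton X-100, 1% formaldehyde and 1 ug/ml Hoechst fixed the cells and stained nuclei 5 days after treatment. Lung cancer cell lines in 1536-well plates had been treated by pin tool the day after seeding with one drug alone or a fixed anchor-drug dose plus five library-drug doses (not always all listed) in √10 steps, and nuclei were counted on 4× images. Relative viability is the ratio of nuclei in treated wells to nuclei in vehicle wells, taken as the median of duplicate plates.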

Staurosporine = compound: CN[C@@H]1C[C@H]2O[C@@](C)([C@@H]1OC)n1c3ccccc3c3c4c(c5c6ccccc6n2c5c31)C(=O)NC4 [Staurosporine]
Method in brief: (§1)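 Following overnight incubation at 37 °C, lung cancer cell lines in 1536-well plates were pinned with five library-drug doses (not always all listed) in √10 steps on vehicle-anchored plates. The cells then spent 5 days without medium change before a combined fix, permeabilisation and Hoechst stain, 4× imaging and MetaXpress nuclear counts. Viability is the treated-to-vehicle ratio of nuclei, taken as the median across plates. Only plates with control CV below 25% and at least one doubling passed.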

5-Fluorouracil = compound: O=c1[nH]cc(F)c(=O)[nH]1 [5-Fluorouracil]
Method in brief: as §1

Sulindac = compound: CC1=C(CC(=O)O)c2cc(F)ccc2/C1=C\c1ccc([S+](C)[O-])cc1 [Sulindac]
Method in brief: as §1

Cell Line	relative viability ([1]; first compound 0.02 µM)	relative viability ([1]; first compound 0.2 µM)	relative viability ([1]; first compound 0.6325 µM)	relative viability ([1]; first compound 2 µM)	relative viability (Staurosporine; 0.005 µM)	relative viability (Staurosporine; 0.01581 µM)	relative viability (Staurosporine; 0.05 µM)	relative viability (Staurosporine; 0.1581 µM)	relative viability (Staurosporine; 0.5 µM)	relative viability (5-Fluorouracil; 0.02 µM)	relative viability (5-Fluorouracil; 0.2 µM)	relative viability (5-Fluorouracil; 0.6325 µM)	relative viability (5-Fluorouracil; 2 µM)	relative viability (Sulindac; 0.08 µM)	relative viability (Sulindac; 0.253 µM)	relative viability (Sulindac; 0.8 µM)	relative viability (Sulindac; 2.53 µM)	relative viability (Sulindac; 8 µM)
PC-14	1.1	0.987	0.757	0.58	0.691	0.404	0.152	0.0788	0.0565	1.02	1.13	0.898	0.552	1.11	1.14	0.786	1.08	1.18
NCI-H1915	1.01	1.09	1.06	0.81	0.944	0.119	0.406	0.18	0.118	0.818	0.986	0.956	0.779	1.13	1.09	0.878	0.965	1.03
COR-L23	0.982	0.886	0.522	0.289	0.765	0.443	0.289	0.123	0.0808	1	0.995	0.476	0.278	1.41	1.08	0.7	1.01	1.22
ChaGo-K-1	0.975	0.874	0.724	0.557	1.03	–	0.871	0.307	0.228	1.01	0.964	0.766	0.612	1.09	1.02	0.863	1.03	1.12
HOP-62	1.14	1.12	1.22	0.95	0.83	0.298	0.183	0.138	0.109	1.03	1	0.971	0.877	1.17	1.13	0.926	1.13	1.09
NCI-H1975	0.999	0.898	0.469	0.259	0.475	0.365	0.258	0.159	0.136	0.968	1.07	0.566	0.343	1.09	0.969	0.795	0.998	1.07
BEN	0.63	0.609	0.548	0.587	1.12	0.905	0.516	0.396	0.237	0.912	0.865	0.68	0.675	1.13	0.963	0.853	0.967	1.16
NCI-H1437	0.687	0.359	0.273	0.225	0.918	0.705	0.704	0.306	0.153	0.626	0.289	0.25	0.216	1.14	1.02	0.857	1.01	1.17
EMC-BAC-2	1.1	1.01	1.05	0.963	0.437	0.213	0.222	0.21	0.259	1.07	1.06	1.03	0.924	1.09	0.976	0.869	0.968	1.19
SW 1573	0.867	1.11	0.784	0.641	0.622	0.277	0.187	0.137	0.076	1.01	1.03	0.938	0.532	1.05	1.09	0.861	0.999	1.21
NCI-H661	1.03	–	1.02	0.972	1.02	0.722	0.555	0.364	0.238	0.998	1.04	0.954	0.992	1.13	1.05	0.989	1	0.965
LXF-289	0.917	0.757	0.468	0.313	1.02	0.652	0.477	0.0851	0.127	0.961	0.912	0.434	0.301	1.11	1.05	0.994	1.02	1.08
LOU-NH91	0.966	0.995	0.731	0.315	0.921	0.603	0.613	0.294	0.275	0.99	1.1	0.734	0.39	0.989	0.982	0.944	0.922	1.11
NCI-H2347	0.689	0.822	0.453	0.513	0.706	0.524	0.457	0.391	0.376	0.928	0.834	0.49	0.448	1.01	1.06	0.759	1.03	1.11
NCI-H2009	1.31	1.27	1.12	0.669	0.452	0.227	0.231	0.167	0.109	1.1	1.02	0.82	0.652	1.1	1.08	0.972	1	1.11
HCC-827	0.879	0.95	0.602	0.429	1.03	0.701	0.723	0.48	0.36	0.855	1.01	0.667	0.469	0.99	1.09	0.97	0.957	1.09
NCI-H1623	0.567	0.35	0.306	0.259	1.14	1.12	1.08	0.932	0.519	0.581	0.355	0.283	0.267	0.896	0.963	0.936	0.961	1
NCI-H727	0.791	0.79	0.903	0.656	0.736	0.554	0.381	0.345	0.22	0.925	1.19	0.846	0.774	0.963	0.923	0.741	0.9	1.01

Cell Line	relative viability ([1]; first compound 0.02 µM)	relative viability ([1]; first compound 0.2 µM)	relative viability ([1]; first compound 0.6325 µM)	relative viability ([1]; first compound 2 µM)	relative viability (Staurosporine; 0.005 µM)	relative viability (Staurosporine; 0.01581 µM)	relative viability (Staurosporine; 0.05 µM)	relative viability (Staurosporine; 0.1581 µM)	relative viability (Staurosporine; 0.5 µM)	relative viability (5-Fluorouracil; 0.02 µM)	relative viability (5-Fluorouracil; 0.2 µM)	relative viability (5-Fluorouracil; 0.6325 µM)	relative viability (5-Fluorouracil; 2 µM)	relative viability (Sulindac; 0.08 µM)	relative viability (Sulindac; 0.253 µM)	relative viability (Sulindac; 0.8 µM)	relative viability (Sulindac; 2.53 µM)	relative viability (Sulindac; 8 µM)
CAL-12T	1.21	1.21	1.07	0.434	0.34	0.223	–	0.15	0.144	1.08	1.03	0.659	0.448	1.05	1.09	0.864	0.946	1.12
PC-3 [JPC-3]	1.06	1.03	0.881	0.703	1.02	0.36	0.698	0.384	0.317	0.967	1.1	0.954	0.743	1.16	1.03	0.926	1.02	1.12
NCI-H23	1.08	0.825	0.52	0.431	0.704	0.139	0.367	0.164	0.117	1	1.13	0.601	0.387	1.19	0.802	0.701	0.799	1.15
NCI-H838	1	1.06	0.523	0.317	0.447	0.315	0.221	0.189	0.126	0.879	1.03	0.597	0.387	1.05	1.04	0.879	0.94	1.07
HCC-366	0.955	0.732	0.43	0.217	1.05	–	0.911	0.15	0.0345	1.03	1.02	0.687	0.138	1.2	1.08	0.757	1	1.08
NCI-H1666	0.969	0.672	0.466	0.405	0.7	0.68	0.557	0.484	0.373	1.04	0.683	0.503	0.479	0.906	0.978	0.886	0.982	1.08
A-427	0.961	1.19	1.08	0.625	0.799	0.236	0.337	0.146	0.139	0.939	1.03	0.9	0.575	1.16	1.01	0.894	1	1.15
NCI-H460	1.02	0.73	0.156	0.0731	0.963	0.762	0.824	0.0553	0.0329	0.99	0.72	0.165	0.0713	1.29	1.06	0.906	0.976	1.06
NCI-H441	1.01	0.887	0.558	0.361	0.889	0.275	0.266	0.18	0.129	0.887	0.866	0.591	0.385	1.34	1.25	0.78	1.09	1.37
ABC-1	1.05	1.12	0.991	0.548	0.42	0.283	0.262	0.172	0.129	1.04	1.03	0.847	0.788	1.07	0.871	0.981	0.838	1.3
SW 900	0.629	0.799	0.729	0.569	0.624	0.368	0.297	0.19	0.102	0.693	0.883	0.859	0.476	0.644	0.939	–	0.601	0.928
LK-2	1.6	1.02	1.13	0.568	1.17	1.06	0.874	0.366	0.243	1.16	0.989	0.8	0.574	1.23	1.06	0.78	0.738	1.21
NCI-H2085	1.02	0.899	0.93	0.592	0.833	0.586	0.624	0.361	0.285	0.931	1.02	0.989	0.813	0.919	1	0.891	0.971	1.04
NCI-H650	0.976	0.617	0.356	0.308	0.63	0.321	0.236	0.229	0.252	0.904	0.648	0.411	0.381	1.1	1.04	0.91	0.849	1.27
SK-MES-1	0.872	0.946	0.45	0.358	0.572	0.334	0.213	0.217	0.127	1.04	0.634	0.364	0.316	1.18	1.14	0.818	1.08	1.1
NCI-H1793	0.683	0.674	0.57	0.406	0.921	–	0.628	0.205	0.152	0.968	1.18	0.985	0.554	0.904	0.993	0.722	0.953	0.908
IA-LM	1.33	0.618	0.496	0.236	0.46	0.177	0.17	0.107	0.0831	0.939	0.519	0.295	0.241	0.835	1.07	–	1.02	1.01
NCI-H3122	0.956	0.721	0.363	0.218	1.04	–	0.893	0.255	0.357	1	0.848	0.39	0.241	1.04	1.03	0.949	0.962	1.08
